Structures can show the parent of a compound that is named as a salt. Where two headings read alike, the source gives them in different places.
Assays:
[1] = biological target: T1, MAO-A (Rattus norvegicus, UniProt P21396); test: Inhibition of MAO activity in vitro (5-HT substrate); assay type: biochemical
T1 construct: from tissue; host or cells: brain, liver and intestine (duodenum) of dosed rats
T1 sequence (P21396 1-526): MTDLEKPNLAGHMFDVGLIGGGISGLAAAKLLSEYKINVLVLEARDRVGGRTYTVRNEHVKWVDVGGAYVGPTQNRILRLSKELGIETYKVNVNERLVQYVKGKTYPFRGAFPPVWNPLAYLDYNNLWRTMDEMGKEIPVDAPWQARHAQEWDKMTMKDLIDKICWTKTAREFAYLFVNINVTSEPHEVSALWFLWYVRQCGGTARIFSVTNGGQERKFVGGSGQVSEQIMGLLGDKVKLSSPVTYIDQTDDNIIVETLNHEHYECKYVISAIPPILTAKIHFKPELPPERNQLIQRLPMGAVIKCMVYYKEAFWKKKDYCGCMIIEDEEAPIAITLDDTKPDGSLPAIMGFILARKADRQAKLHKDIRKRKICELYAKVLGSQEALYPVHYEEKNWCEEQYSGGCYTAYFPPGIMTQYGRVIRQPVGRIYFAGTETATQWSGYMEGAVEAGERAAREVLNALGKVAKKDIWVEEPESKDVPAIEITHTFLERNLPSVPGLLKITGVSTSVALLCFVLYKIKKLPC
Description: (§1) The MAO enzyme source was a homogenate of rat brain in 0.3M sucrose. The homogenate was diluted appropriately, and pre-incubated with serial dilutions of test compounds—diluted in phosphate buffer containing clogyline when 2-phenylethylamine (PEA) is the substrate, and diluted in phosphate buffer containing selegiline when 5-hydroxytryptamine (5-HT) is the substrate—for 60 minutes at 37° C. 14C-Labeled substrates (PEA for MAO-B determination and 5-HT for MAO-A determination) were then added, and the incubation continued for a further 20 minutes (PEA) or 30 minutes (5-HT). Substrate concentrations used were 10 μM (PEA) and 100 uM (5-HT). Enzyme concentration was chosen so that not more than 10% of the substrate was metabolized during the course of the reaction. Deaminated products were extracted into toluene-ethyl acetate (1:1 v/v) containing 0.4% (w/v) 2,5-diphenyloxazole (ppo) prior to determination by liquid scintillation counting. Radioactivity in the eluate indicated the production of neutral and acidic metabolites formed as a result of MAO activity. Activity of MAO in the sample was expressed as a percentage of control activity in the absence of inhibitor after subtraction of appropriate blank values. The activity determined using PEA as substrate is referred to as MAO-B, and that determined using 5-HT as MAO-A.
(§2) Concentrations of each inhibitor producing 50% inhibition of substrate metabolism (IC50) were calculated from the inhibition curves, and are shown in Table 1.

[2] = biological target: T2, MAO-B (Rattus norvegicus, UniProt P19643); test: Inhibition of MAO activity in vitro (PEA substrate); assay type: biochemical
T2 construct: from tissue; host or cells: brain, liver and intestine (duodenum) of dosed rats
T2 sequence (P19643 1-520): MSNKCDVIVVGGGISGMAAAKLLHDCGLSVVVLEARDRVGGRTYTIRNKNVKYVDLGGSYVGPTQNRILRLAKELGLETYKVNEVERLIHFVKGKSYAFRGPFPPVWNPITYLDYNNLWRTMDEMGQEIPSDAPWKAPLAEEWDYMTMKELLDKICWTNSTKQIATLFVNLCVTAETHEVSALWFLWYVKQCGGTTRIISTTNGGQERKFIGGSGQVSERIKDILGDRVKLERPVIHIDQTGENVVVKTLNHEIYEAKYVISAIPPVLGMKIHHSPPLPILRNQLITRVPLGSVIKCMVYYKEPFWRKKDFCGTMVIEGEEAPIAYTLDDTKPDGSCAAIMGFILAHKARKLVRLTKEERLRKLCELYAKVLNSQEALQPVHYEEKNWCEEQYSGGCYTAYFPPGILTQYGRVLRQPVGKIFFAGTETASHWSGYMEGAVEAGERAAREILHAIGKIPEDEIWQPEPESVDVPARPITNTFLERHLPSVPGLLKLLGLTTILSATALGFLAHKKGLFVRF
Description: as §1, §2

[3] = Pharmacokinetic analysis of ladostigil and metabolites in Alzheimer's disease patients; conditions: human, in vivo, 100 mg; for Cmax / AUC / AUC(0-t): after ladostigil tartrate 100 mg twice daily; for concentration at 12 h: mean concentration at pre-dose, 12 hours after the previous dose of ladostigil tartrate; for AUC: AUC (M)
[4] = both, Cmax (M), mean, mean of patients, maintenance analysis Week 4
[5] = both, Cmax (T), mean, mean of patients, termination analysis Week 9
[6] = both, Cmin (M), mean of patients, maintenance analysis Week 4
[7] = both, Cmin (T), mean of patients, termination analysis Week 9
[8] = Patient 1, maintenance analysis Week 4
[9] = Patient 2, maintenance analysis Week 4
[10] = Patient 3, maintenance analysis Week 4
[11] = Patient 4, maintenance analysis Week 4
[12] = Patient 5, maintenance analysis Week 4
[13] = Patient 6, maintenance analysis Week 4
[14] = Patient 7, maintenance analysis Week 4
[15] = Patient 8, maintenance analysis Week 4
[16] = Patient 1, termination analysis Week 9
[17] = Patient 2, termination analysis Week 9
[18] = Patient 3, termination analysis Week 9
[19] = Patient 4, termination analysis Week 9
[20] = Patient 5, termination analysis Week 9
[21] = Patient 6, termination analysis Week 9
[22] = Patient 7, termination analysis Week 9
[23] = Patient 8, termination analysis Week 9
[24] = Cmax (M), Patient 1, maintenance analysis Week 4
[25] = Cmax (M), Patient 2, maintenance analysis Week 4
[26] = Cmax (M), Patient 3, maintenance analysis Week 4
[27] = Cmax (M), Patient 4, maintenance analysis Week 4
[28] = Cmax (M), Patient 5, maintenance analysis Week 4
[29] = Cmax (M), Patient 6, maintenance analysis Week 4
[30] = Cmax (M), Patient 7, maintenance analysis Week 4
[31] = Cmax (M), Patient 8, maintenance analysis Week 4
[32] = Cmax (T), Patient 1, termination analysis Week 9
[33] = Cmax (T), Patient 2, termination analysis Week 9
[34] = Cmax (T), Patient 3, termination analysis Week 9
[35] = Cmax (T), Patient 4, termination analysis Week 9
[36] = Cmax (T), Patient 5, termination analysis Week 9
[37] = Cmax (T), Patient 6, termination analysis Week 9
[38] = Cmax (T), Patient 7, termination analysis Week 9
[39] = Cmax (T), Patient 8, termination analysis Week 9

C#CCN[C@@H]1CCc2ccc(OC(=O)N(CC)CO)cc21 [R-HCPAI, Ethyl-hydroxymethyl-carbamic acid 3-R-(prop-2-ynylamino)-indan-5-yl ester fumarate (2:1)]
IC50 ([1]; rat brain homogenate, 5-HT 100 uM, 60 minutes pre-incubation at 37° C., read-out: IC50 for MAO-A inhibition): 414 µM
IC50 ([2]; rat brain homogenate, PEA 10 μM, 60 minutes pre-incubation at 37° C., read-out: IC50 for MAO-B inhibition): 599 µM
half-life ([3]; both): 1.03 h
Cmax [3, 4]: 3.63e-06 M
Cmax [3, 5]: 3.3e-06 M
concentration at 12 h [3, 6]: 2.32e-08 M
concentration at 12 h [3, 7]: 1.37e-08 M
AUC [3, 8]: 1660 ng·h/mL
AUC [3, 9]: 600 ng·h/mL
AUC [3, 10]: 2290 ng·h/mL
AUC [3, 11]: 2150 ng·h/mL
AUC [3, 12]: 1700 ng·h/mL
AUC [3, 13]: 1890 ng·h/mL
AUC [3, 14]: 519 ng·h/mL
AUC [3, 15]: 1510 ng·h/mL
AUC(0-t) [3, 16]: 1300 ng·h/mL
AUC(0-t) [3, 17]: 3100 ng·h/mL
AUC(0-t) [3, 18]: 2520 ng·h/mL
AUC(0-t) [3, 19]: 1740 ng·h/mL
AUC(0-t) [3, 20]: 1650 ng·h/mL
AUC(0-t) [3, 21]: 2400 ng·h/mL
AUC(0-t) [3, 22]: 1040 ng·h/mL
AUC(0-t) [3, 23]: 1340 ng·h/mL
Cmax [3, 24]: 3.6e-06 M
Cmax [3, 25]: 1.5e-06 M
Cmax [3, 26]: 3.7e-06 M
Cmax [3, 27]: 7e-06 M
Cmax [3, 28]: 4.7e-06 M
Cmax [3, 29]: 4e-06 M
Cmax [3, 30]: 1.2e-06 M
Cmax [3, 31]: 3.3e-06 M
Cmax [3, 32]: 3.2e-06 M
Cmax [3, 33]: 3.9e-06 M
Cmax [3, 34]: 3.9e-06 M
Cmax [3, 35]: 3.9e-06 M
Cmax [3, 36]: 3.7e-06 M
Cmax [3, 37]: 3.2e-06 M
Cmax [3, 38]: 2.1e-06 M
Cmax [3, 39]: 2.6e-06 M

CNC(=O)Oc1ccc2c(c1)[C@H](N)CC2 [R-MCAI, Methyl-carbamic acid 3-R-amino-indan-5-yl ester hydrochloride]
IC50 [1]: 32.2 µM
IC50 [2]: > 1000 µM
half-life ([3]; both): 8.09 h
Cmax [3, 4]: 2.7e-07 M
Cmax [3, 5]: 2.61e-07 M
concentration at 12 h [3, 6]: 1.53e-07 M
concentration at 12 h [3, 7]: 1.39e-07 M
AUC [3, 8]: 62 ng·h/mL
AUC [3, 9]: 121 ng·h/mL
AUC [3, 10]: 172 ng·h/mL
AUC [3, 11]: 191 ng·h/mL
AUC [3, 12]: 171 ng·h/mL
AUC [3, 13]: 144 ng·h/mL
AUC [3, 14]: 213 ng·h/mL
AUC [3, 15]: 86 ng·h/mL
AUC(0-t) [3, 16]: 570 ng·h/mL
AUC(0-t) [3, 17]: 733 ng·h/mL
AUC(0-t) [3, 18]: 958 ng·h/mL
AUC(0-t) [3, 19]: 672 ng·h/mL
AUC(0-t) [3, 20]: 895 ng·h/mL
AUC(0-t) [3, 21]: 964 ng·h/mL
AUC(0-t) [3, 22]: 186 ng·h/mL
AUC(0-t) [3, 23]: 426 ng·h/mL
Cmax [3, 24]: 1e-07 M
Cmax [3, 25]: 2e-07 M
Cmax [3, 26]: 3e-07 M
Cmax [3, 27]: 3e-07 M
Cmax [3, 28]: 3e-07 M
Cmax [3, 29]: 3e-07 M
Cmax [3, 30]: 4e-07 M
Cmax [3, 31]: 2e-07 M
Cmax [3, 32]: 2e-07 M
Cmax [3, 33]: 2e-07 M
Cmax [3, 34]: 3e-07 M
Cmax [3, 35]: 2e-07 M
Cmax [3, 36]: 4e-07 M
Cmax [3, 37]: 3e-07 M
Cmax [3, 38]: 2e-07 M
Cmax [3, 39]: 2e-07 M

— patent publication US8609719B2, “Propargylated aminoindans, processes for preparation, and uses thereof” (priority 2006, dated 2013)
